Values after ≈ are worked out from the molar mass of the structure shown. Read-outs that look alike come from different tables or passages of the source.

For data set [1], the system named is P. aeruginosa NH57388A. Nature of the data set: MIC, broth microdilution. In kind it is cell-based. To be noted: P. aeruginosa NIH57388A CF. Here is the method: (§1) Bacterial strains MIC testing: P. aeruginosa ATCC 27853 and NH57388A were used in these studies. MICs were determined by a broth microdilution assay according to CLSI reference methods (Methods for dilution of antimicrobial susceptibility test for bacteria that grow aerobically. Seventh Edition: Clinical and Laboratory Standards Institute (2006) M&-A7, incorporated by reference in its entirety). Assays were performed in a final volume of 100 μl. The bacterial suspensions were adjusted to yield a cell density of 5×10^5 CFU/ml. Antibiotics were prepared at a concentration equivalent to twofold the highest desired final concentration in culture medium and were then diluted directly into 96-well microtiter plates. Microtiter plates were incubated for 24 h at 35° C. and were read by using a microtiter plate reader (Molecular Devices) at 600 nm as well as by visual observation by using a microtiter plate reading mirror.

Data set [2] relates to P. aeruginosa ATCC 27853. Description: MIC, broth microdilution. In kind it is cell-based. To be noted: Pseudomonas aeruginosa, ATCC27853, P. aeruginosa ATCC27853. Here is the method:
as §1
Background: Broth dilution looks for growth in wells or tubes with falling amounts of substance.

The test system of data set [3] is P. aeruginosa ATCC 27853. Nature of the data set: Acute mouse lung infection model. To be noted: mice; for survival rate: monitored over 9 days; for maximum dose, limited due to toxicity: aerosol route. The protocol: Aerosol Administration of antibiotics: Antibiotics were aerosolized using a microspray aerosol device (MicroSprayer Model IA-C, PennCentury, Philadelphia, Pa.) attached to a FMJ-250 High-Pressure Syringe (PennCentury, Philadelphia, Pa.). […] For administration, each mouse was anesthetized (5% isoflurane in oxygen running at 4 L/min) and positioned securely at a 45-50° angle by the upper teeth, the microspray aerosol tip was inserted to the bifurcation and a 50 μl volume was administered.
The bacterial suspensions were adjusted to approximately 1-6×10^5 CFU/ml by correlation of the absorbance at 600 nm with predetermined plate counts. […] On day 4, mice were infected by intratracheal (IT) instillation of 0.05 ml of inoculum using a curved oral gavage tip attached to a 1 ml syringe. […] Antibiotics were aerosolized using a microspray aerosol device. All infections and aerosol treatments were performed under isoflurane anesthesia (5% isoflurane in oxygen running at 4 L/min). An untreated group of mice (n=8) was sacrificed prior to the initiation of treatment to determine baseline bacterial counts. […] The lungs were removed aseptically and homogenized (Pro200 homogenizer, Pro Scientific, Monroe, Conn.) in 1 ml of sterile saline. Serial 10-fold dilutions of the homogenized lung were plated on Mueller-hinton agar (MHA), and colonies counted.
In addition, due to the need for anesthesia for treatment, the maximum number of daily doses was limited to two.

A short description of data set [4]: in vivo. To be noted: rat, 10 mg/kg. The protocol: This example relates to aerosol and intravenous administration of fluoroquinolones in saline. A rat pharmacokinetic model was used to compare intravenous and pulmonary administration of fluoroquinolones. […] Doses were administered via the lateral tail vein, or to the lung just above the tracheal bifurcation using a micro-spray aerosol device (Penn Century, Philadelphia, Pa.).
Approximately 0.3 ml blood samples were taken from 2-6 rats at each timepoint via an indwelling jugular vein cannula, and collected in lithium heparin tubes. Bronchial alveolar lavage (BAL) and lung tissue were collected following euthanasia. […] Sample concentrations were determined against a standard curve.

For data set [5] the following is noted: aerosol dose of […], adults with cystic fibrosis, Cooney et al. 1994; cited from earlier work.
For data set [6], the system named is P. aeruginosa NH57388A. Description: Chronic mouse lung infection model. In kind it is in vivo. To be noted: mice, aerosol tobramycin 60 mg/kg twice a day for three consecutive days. Here is the method:
Bacterial cells were harvested by centrifugation (23,000×g, 30 min, at 4° C.) and resuspended in 3-6 ml of MHB. The supernatant was collected and placed in 80° C. water-bath for 30 min. […] The precipitated alginate was collected with a sterile bacterial loop and washed several times in sterile saline. The purified alginate was then resuspended in 10 ml of sterile saline and stirred vigorously to form a homogeneous suspension. […] The bacterial suspension was diluted (1:10) in the alginate suspension to yield about 10^8 CFU/ml. […] On day 4, the mice were infected using a curved bead-tipped oral gavage attached to a 1 ml syringe while under isoflurane anesthesia.

The mark [7] stands for this setting: Pseudomonas aeruginosa, NH57388A, read-out: MIC.
[8] abbreviates: male, Sprague-Dawley, in vivo, inhaled or intranasal.
Where [9] appears, read: male, Sprague-Dawley, in vivo, iv.

As for `C[C@H]1[C@H](NC(=O)/C(=N\OC(C)(C)C(=O)O)c2csc(N)n2)C(=O)N1S(=O)(=O)O` [Aztreonam, aztreonam], the MIC in data set [1] (setting [7]) and in data set [2] was 4 µg/mL (≈ 9.19 µM) throughout. Moreover, the survival rate in data set [3] (aerosol 800 mg/kg/day (400 mg/kg BID)) is given as 20%. Further, the “mean reductions in bacterial counts” value in data set [3] (aerosol aztreonam 400 mg/kg twice a day for 2 consecutive days) was 0.24 log CFU per lung. In addition, the “maximum dose, limited due to toxicity” value in data set [3] is 400 mg/kg.

For `O=C(O)c1cn(C2CC2)c2cc(N3CCNCC3)c(F)cc2c1=O` [Ciprofloxacin, ciprofloxacin], in data set [4] (Aerosol, in saline), the MAT is reported as 0.59 h.

On to `COc1c(N2CCNC(C)C2)c(F)cc2c(=O)c(C(=O)O)cn(C3CC3)c12` (stereo not shown) [Gatifloxacin, gatifloxacin], for which, in data set [4] (male, Sprague-Dawley, in vivo), the “F, % from Lung vs IV” value is given as 100% and the MAT is given as 0 h. Moreover, in data set [4] (setting [8]), the AUC – broadly, concentration integrated over time – is 3120 ng·h/mL; the AUC(0-inf) – broadly, the area under the concentration-time curve extrapolated to infinity – worked out at 5830 ng·h/mL; the mean residence time (MRT) (as a rule, the average time that molecules of a dose stay in the body) is 1.34 h; the half-life (commonly how long it takes for the measured level to halve) is 1.13 h. In data set [4] (setting [9]), this compound gave an exposure (AUC) of 350 ng·h/mL, an AUC(0-inf) of 5310 ng·h/mL, an MRT of 1.39 h and a half-life of 1.06 h.

`CO/N=C1\CN(c2nc3c(cc2F)c(=O)c(C(=O)O)cn3C2CC2)CC1CN` (stereo not shown) [Gemifloxacin, gemifloxacin]: in data set [4] (male, Sprague-Dawley, in vivo), the “F, % from Lung vs IV” value stood at 86% and the MAT came to 0.65 h. Besides, in data set [4] (setting [8]), the area under the curve (AUC) was found to be 140000 ng·h/mL, the AUC(0-inf) was determined as 5860 ng·h/mL, the MRT was 2.06 h and the half-life was 1.68 h. In data set [4] (setting [9]), this compound showed an exposure (AUC) of 900 ng·h/mL, an AUC(0-inf) of 4540 ng·h/mL, an MRT of 1.41 h and a half-life of 1.04 h.

On to `CCn1cc(C(=O)O)c(=O)c2cc(F)c(N3CCNCC3)cc21` [Norfloxacin, norfloxacin], for which, in data set [4] (male, Sprague-Dawley, in vivo), the “F, % from Lung vs IV” value is recorded as 100% and the MAT is given as 0 h. In data set [4] (setting [8]), this compound showed an area under the curve (AUC) of 24600 ng·h/mL, an AUC(0-inf) of 4460 ng·h/mL, an MRT of 1.29 h and a half-life of 1.13 h. Also, in data set [4] (setting [9]), the area under the curve (AUC) came to 800 ng·h/mL, the AUC(0-inf) is 4650 ng·h/mL, the mean residence time MRT worked out at 1.59 h and the half-life was 1.21 h.

For the compound `NC[C@H]1O[C@H](O[C@H]2[C@H](O)[C@@H](O[C@H]3O[C@H](CO)[C@@H](O)[C@H](N)[C@H]3O)[C@H](N)C[C@@H]2N)[C@H](N)C[C@@H]1O` [Tobramycin, tobramycin], in data set [5], the bioavailability entry is on record as “about 9%”. Moreover, the results for the minimum inhibitory concentration (MIC) in data set [1] and in data set [1] (setting [7]) were 0.5 µg/mL (≈ 1.07 µM) and below 1 µg/mL, respectively. Moreover, in data set [3] (aerosol 120 mg/kg/day (60 mg/kg BID)), the survival rate is 60%. Besides, in data set [3], the “maximum dose, limited due to toxicity” value is recorded as 60 mg/kg. Also, the “mean reductions in bacterial counts” value in data set [3] (aerosol tobramycin 60 mg/kg twice a day for 2 consecutive days) is 2.70 log CFU per lung. In data set [6], the “mean log CFU reductions” value is on record as 2.9 log CFU.

Source of the values: US10722519B2, “Aerosol fluoroquinolone formulations for improved pharmacokinetics” (priority 2008, dated 2020).
